Measurements taken from patent US12336972B2, “Synergistic nutritional compositions for treating neurocognitive disorders” (CELAGENEX RESEARCH (INDIA) PVT. LTD., priority 2021, dated 2025).

Tests used:
[1] = set-up: species or system Swiss albino mice; settings: mouse, in vivo
Source text: Housing Conditions: [table]

[2] = system: Acetylcholine; assay: Cholinergic dysfunction: Acetylcholine level; type: in vivo, Swiss albino mice
[3] = system: scopolamine induced memory deficit (Alzheimer's disease) in Swiss albino mice; assay: Spatial learning test (T-maze test), scopolamine induced memory deficit
[4] = system: scopolamine induced memory deficit (Alzheimer's disease) in Swiss albino mice; assay: Pole climbing test, scopolamine induced memory deficit
[5] = system: Tau protein; assay: Tau pathology: Tau protein in serum; type: in vivo, Swiss albino mice
[6] = system: IL-6; assay: Neuro-inflammation cytokines: IL-6 in cerebral cortex; type: in vivo, Swiss albino mice
[7] = system: Brain-derived neurotrophic factor (BDNF); assay: Neurotrophic factors: BDNF in serum; type: in vivo, Swiss albino mice
[8] = system: TNF-α; assay: Neuro-inflammation cytokines: TNF-α; type: in vivo, Swiss albino mice; settings: serum (FIG. 7)

COc1cc2c(cc1OC)C(=O)C(CC1CCN(Cc3ccccc3)CC1)C2 (stereo not drawn) [Group 3, Donepezil]
Body Weight, Initial [1]: 28.17 ± 2.5 gm
Feed Consumption, 0 day [1]: 3.98 gm
Feed Consumption, Week 4 [1]: 4.68 gm
Ach ([2]; Average of 6 animals): 64.95 pg/mg
Ach ([2]; animal 1): 63.20 pg/mg
Ach ([2]; animal 2): 64.80 pg/mg
Ach ([2]; animal 3): 66.50 pg/mg
Ach ([2]; animal 4): 62.50 pg/mg
Ach ([2]; animal 5): 67.20 pg/mg
Ach ([2]; animal 6): 65.50 pg/mg
T-Maze test, Latency time ([3]; Average of 6 animals): 19.00 s
T-Maze test, Number of entries in discriminated arm ([3]; Average of 6 animals): 2.67
T-Maze test, time spent in the discriminated arm ([3]; Average of 6 animals): 55.83 s
T-Maze test, Number of entries in discriminated arm ([3]; animal 1): 3
T-Maze test, time spent in the discriminated arm ([3]; animal 1): 60 s
T-Maze test, Number of entries in discriminated arm ([3]; animal 2): 2
T-Maze test, time spent in the discriminated arm ([3]; animal 2): 55 s
T-Maze test, Number of entries in discriminated arm ([3]; animal 3): 3
T-Maze test, time spent in the discriminated arm ([3]; animal 3): 56 s
T-Maze test, Number of entries in discriminated arm ([3]; animal 4): 2
T-Maze test, time spent in the discriminated arm ([3]; animal 4): 53 s
T-Maze test, Number of entries in discriminated arm ([3]; animal 5): 3
T-Maze test, time spent in the discriminated arm ([3]; animal 5): 55 s
T-Maze test, Number of entries in discriminated arm ([3]; animal 6): 3
T-Maze test, time spent in the discriminated arm ([3]; animal 6): 56 s
T-Maze test, Number of entries in preferred arm ([3]; Average of 6 animals): 5.17
T-Maze test, time spent in the preferred arm ([3]; Average of 6 animals): 120.67 s
T-Maze test, Number of entries in preferred arm ([3]; animal 1): 5
T-Maze test, time spent in the preferred arm ([3]; animal 1): 115 s
T-Maze test, Number of entries in preferred arm ([3]; animal 2): 6
T-Maze test, time spent in the preferred arm ([3]; animal 2): 125 s
T-Maze test, Number of entries in preferred arm ([3]; animal 3): 4
T-Maze test, time spent in the preferred arm ([3]; animal 3): 121 s
T-Maze test, Number of entries in preferred arm ([3]; animal 4): 5
T-Maze test, time spent in the preferred arm ([3]; animal 4): 131 s
T-Maze test, Number of entries in preferred arm ([3]; animal 5): 6
T-Maze test, time spent in the preferred arm ([3]; animal 5): 110 s
T-Maze test, Number of entries in preferred arm ([3]; animal 6): 5
T-Maze test, time spent in the preferred arm ([3]; animal 6): 122 s
T-Maze test, Latency time ([3]; animal 1): 20 s
T-Maze test, Latency time ([3]; animal 2): 19 s
T-Maze test, Latency time ([3]; animal 3): 20 s
T-Maze test, Latency time ([3]; animal 4): 18 s
T-Maze test, Latency time ([3]; animal 5): 18 s
T-Maze test, Latency time ([3]; animal 6): 19 s
Pole climbing test, time ([4]; Average of 6 animals): 69.83 s
Pole climbing test, time ([4]; animal 1): 75 s
Pole climbing test, time ([4]; animal 2): 72 s
Pole climbing test, time ([4]; animal 3): 65 s
Pole climbing test, time ([4]; animal 4): 61 s
Pole climbing test, time ([4]; animal 5): 77 s
Pole climbing test, time ([4]; animal 6): 69 s

NCCCS(=O)(=O)O [Group 5, 3-amino-1-propanesulfonic acid]
Body Weight, Initial [1]: 28.17 ± 2.5 gm
Feed Consumption, 0 day [1]: 3.83 gm
Feed Consumption, Week 4 [1]: 4.88 gm
Tau Protein in Serum ([5]; Average of 6 animals): 0.97 ng/mL
Tau Protein in Serum ([5]; animal 1): 1.10 ng/mL
Tau Protein in Serum ([5]; animal 2): 1.00 ng/mL
Tau Protein in Serum ([5]; animal 3): 0.90 ng/mL
Tau Protein in Serum ([5]; animal 4): 1.00 ng/mL
Tau Protein in Serum ([5]; animal 5): 0.80 ng/mL
Tau Protein in Serum ([5]; animal 6): 1.00 ng/mL
Ach ([2]; Average of 6 animals): 68.07 pg/mg
Ach ([2]; animal 1): 67.00 pg/mg
Ach ([2]; animal 2): 68.50 pg/mg
Ach ([2]; animal 3): 68.80 pg/mg
Ach ([2]; animal 4): 68.00 pg/mg
Ach ([2]; animal 5): 67.90 pg/mg
Ach ([2]; animal 6): 68.20 pg/mg
IL-6 in cerebral cortex ([6]; Average of 6 animals): 36.35 pg/mL
IL-6 in cerebral cortex ([6]; animal 1): 37.80 pg/mL
IL-6 in cerebral cortex ([6]; animal 2): 36.50 pg/mL
IL-6 in cerebral cortex ([6]; animal 3): 35.70 pg/mL
IL-6 in cerebral cortex ([6]; animal 4): 34.80 pg/mL
IL-6 in cerebral cortex ([6]; animal 5): 36.50 pg/mL
IL-6 in cerebral cortex ([6]; animal 6): 36.80 pg/mL
BDNF in Serum ([7]; Average of 6 animals): 22.23 ng/mL
BDNF in Serum ([7]; animal 1): 22.00 ng/mL
BDNF in Serum ([7]; animal 2): 22.50 ng/mL
BDNF in Serum ([7]; animal 3): 22.30 ng/mL
BDNF in Serum ([7]; animal 4): 21.00 ng/mL
BDNF in Serum ([7]; animal 5): 23.00 ng/mL
BDNF in Serum ([7]; animal 6): 22.60 ng/mL
T-Maze test, Latency time ([3]; Average of 6 animals): 18.83 s
T-Maze test, Number of entries in discriminated arm ([3]; Average of 6 animals): 4.17
T-Maze test, time spent in the discriminated arm ([3]; Average of 6 animals): 60.67 s
T-Maze test, Number of entries in discriminated arm ([3]; animal 1): 5
T-Maze test, time spent in the discriminated arm ([3]; animal 1): 60 s
T-Maze test, Number of entries in discriminated arm ([3]; animal 2): 6
T-Maze test, time spent in the discriminated arm ([3]; animal 2): 58 s
T-Maze test, Number of entries in discriminated arm ([3]; animal 3): 6
T-Maze test, time spent in the discriminated arm ([3]; animal 3): 61 s
T-Maze test, Number of entries in discriminated arm ([3]; animal 4): 3
T-Maze test, time spent in the discriminated arm ([3]; animal 4): 62 s
T-Maze test, Number of entries in discriminated arm ([3]; animal 5): 3
T-Maze test, time spent in the discriminated arm ([3]; animal 5): 60 s
T-Maze test, Number of entries in discriminated arm ([3]; animal 6): 2
T-Maze test, time spent in the discriminated arm ([3]; animal 6): 63 s
T-Maze test, Number of entries in preferred arm ([3]; Average of 6 animals): 4.50
T-Maze test, time spent in the preferred arm ([3]; Average of 6 animals): 105.67 s
T-Maze test, Number of entries in preferred arm ([3]; animal 1): 6
T-Maze test, time spent in the preferred arm ([3]; animal 1): 109 s
T-Maze test, Number of entries in preferred arm ([3]; animal 2): 4
T-Maze test, time spent in the preferred arm ([3]; animal 2): 102 s
T-Maze test, Number of entries in preferred arm ([3]; animal 3): 5
T-Maze test, time spent in the preferred arm ([3]; animal 3): 106 s
T-Maze test, Number of entries in preferred arm ([3]; animal 4): 4
T-Maze test, time spent in the preferred arm ([3]; animal 4): 108 s
T-Maze test, Number of entries in preferred arm ([3]; animal 5): 5
T-Maze test, time spent in the preferred arm ([3]; animal 5): 105 s
T-Maze test, Number of entries in preferred arm ([3]; animal 6): 3
T-Maze test, time spent in the preferred arm ([3]; animal 6): 104 s
T-Maze test, Latency time ([3]; animal 1): 20 s
T-Maze test, Latency time ([3]; animal 2): 19 s
T-Maze test, Latency time ([3]; animal 3): 18 s
T-Maze test, Latency time ([3]; animal 4): 19 s
T-Maze test, Latency time ([3]; animal 5): 17 s
T-Maze test, Latency time ([3]; animal 6): 20 s
TNF-alfa ([8]; Average of 6 animals): 2.83 ng/mL
TNF-alfa ([8]; animal 1): 2.80 ng/mL
TNF-alfa ([8]; animal 2): 3.10 ng/mL
TNF-alfa ([8]; animal 3): 2.50 ng/mL
TNF-alfa ([8]; animal 4): 3.00 ng/mL
TNF-alfa ([8]; animal 5): 2.60 ng/mL
TNF-alfa ([8]; animal 6): 3.00 ng/mL
Pole climbing test, time ([4]; Average of 6 animals): 59.00 s
Pole climbing test, time ([4]; animal 1): 65 s
Pole climbing test, time ([4]; animal 2): 60 s
Pole climbing test, time ([4]; animal 3): 62 s
Pole climbing test, time ([4]; animal 4): 56 s
Pole climbing test, time ([4]; animal 5): 54 s
Pole climbing test, time ([4]; animal 6): 57 s
